Measurements: PubChem BioAssay (NCI)
Values joined by “and” are separate entries in the source; they are usually repeats but may differ in a detail not shown here. Identical values can stand only once.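 Test compounds were applied to cells in 96-well plates for 48 hours at 5 doses. GI50 is the concentration that inhibits growth by half. The concentration for full growth arrest is given as TGI.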

What was measured:
Experiment in all cases: NCI anticancer screen, dose series, 48 h
[1] = system: UACC-62 melanoma
[2] = system: CCRF-CEM leukemia
[3] = system: LOX IMVI melanoma
[4] = system: SR leukemia
[5] = system: NCI/ADR-RES ovarian
[6] = system: EKVX NSCLC
[7] = system: IGROV1 ovarian
[8] = system: SK-MEL-2 melanoma
[9] = system: MDA-N
[10] = system: NCI-H23 lung
[11] = system: U251 CNS
[12] = system: HS 578T breast
[13] = system: MALME-3M melanoma
[14] = system: SK-MEL-28 melanoma
[15] = system: SK-OV-3 ovarian
[16] = system: MCF7 breast

SMILES	TGI [1]	TGI [2]	TGI [3]	TGI [4]	TGI [5]	TGI [6]	TGI [7]	TGI [8]	TGI [9]	TGI [10]	TGI [11]	TGI [12]	TGI [13]	TGI [14]	TGI [15]	TGI [16]	GI50 [1]	GI50 [15]	GI50 [11]
CC(=O)OCCOCn1cnc2c(Cl)nc(Cl)nc21	30.1 µM	23.7 µM	15.8 µM	16.1 µM	57.5 µM	7.83 µM	30.6 µM	55.6 µM	32.9 µM	36.1 µM	29.2 µM	40.4 µM	33.3 µM	–	–	–	–	–	–
COc1cc(O)c2c(c1)OCC(Cc1ccc(O)cc1)C2=O (stereo not drawn)	> 100 µM	> 100 µM	> 100 µM	> 100 µM	> 100 µM	–	> 100 µM	> 100 µM	> 100 µM	> 100 µM	> 100 µM	> 100 µM	> 100 µM	> 100 µM	> 100 µM	–	–	–	–
COc1ccc(C2=Nn3c(nnc(Cc4ccc(Cl)cc4)c3=O)SC2)cc1	> 100 µM	> 100 µM	> 100 µM	–	53.7 µM	> 100 µM	> 100 µM	> 100 µM	–	> 100 µM	> 100 µM	> 100 µM	> 100 µM	> 100 µM	> 100 µM	> 100 µM	–	–	–
CCNc1cc2c(cc1O)CC[C@@H]1[C@@H]2CC[C@]2(C)[C@@H](O)CC[C@@H]12	> 35 µM	> 100 µM	20.3 µM	41.2 µM	20.9 µM	34.8 µM	33.2 µM	–	2.14 µM	28.7 µM	18.5 µM	35 µM	17.5 µM	24.5 µM	> 39 µM	25 µM	–	–	–
Cc1nn(C(=O)Cc2ccccc2)c2c1C(c1ccc(N(C)C)cc1)SC(N)=N2 (stereo not drawn)	> 100 µM	> 100 µM	> 100 µM	> 100 µM	–	> 100 µM	> 100 µM	–	> 100 µM	> 100 µM	–	> 100 µM	> 100 µM	> 100 µM	> 100 µM	> 100 µM	–	–	–
NC(N)=N/N=C/c1c(-c2cccc([N+](=O)[O-])c2)nc2n1CCS2	39 µM	> 100 µM	73.1 µM	34.9 µM	> 100 µM	54.5 µM	30.9 µM	34 µM	–	58.9 µM	41.7 µM	32.1 µM	38.1 µM	41.5 µM	–	36.1 µM	–	–	–
CC12CCC([C@H](C(O)C3CCCCC3)C1=O)C2(C)C (stereo partly drawn)	> 100 µM	> 100 µM	> 100 µM	> 100 µM	> 100 µM	> 100 µM	> 100 µM	> 100 µM	> 100 µM	> 100 µM	> 100 µM	> 100 µM	–	–	> 100 µM	> 100 µM	–	–	–
CC(C)Oc1ccc2c(c1)OCC1Cc3ccccc3OC21 (stereo not drawn)	> 100 µM	> 100 µM	> 100 µM	> 100 µM	> 100 µM	> 100 µM	> 100 µM	> 100 µM	> 100 µM	> 100 µM	> 100 µM	–	> 100 µM	–	> 100 µM	> 100 µM	–	–	–
O=C1O/C(=C(/Cl)c2cccc3ccccc23)c2ccccc21	> 100 µM	–	–	> 100 µM	–	> 100 µM	> 100 µM	–	> 100 µM	> 100 µM	> 100 µM	> 100 µM	> 100 µM	> 100 µM	> 100 µM	> 100 µM	–	–	–
COC1(OC)CC(CO)(CNc2nc(N)nc(Cl)c2/C=N\O)C1	–	> 100 µM	> 100 µM	> 100 µM	> 100 µM	> 100 µM	> 100 µM	–	> 100 µM	> 100 µM	> 100 µM	> 100 µM	> 100 µM	> 100 µM	–	> 100 µM	–	–	–
COc1cc(OC)c2c(=O)c(OC)c(-c3ccc4c(c3)OCO4)oc2c1	72 µM	> 100 µM	48.8 µM	–	> 100 µM	> 100 µM	> 100 µM	42.5 µM	> 100 µM	64 µM	30.3 µM	97.6 µM	> 100 µM	> 100 µM	71.7 µM	> 100 µM	–	–	–
CCCCCCCCCCN(CCCCCCCCCC)C(=O)COc1c2cc(C(C)(C)C)cc1Cc1cc(C(C)(C)C)cc(c1OCC(=O)N(CCCCCCCCCC)CCCCCCCCCC)Cc1cc(C(C)(C)C)cc(c1OCC(=O)N(CCCCCCCCCC)CCCCCCCCCC)Cc1cc(C(C)(C)C)cc(c1OCC(=O)N(CCCCCCCCCC)CCCCCCCCCC)C2	25.3 µM	14.1 µM	23.7 µM	6.06 µM	29.2 µM	25.2 µM	24.8 µM	20.4 µM	24.9 µM	9.16 µM	23.2 µM	–	28.7 µM	24.1 µM	27.6 µM	6.95 µM	–	–	–
NNc1nncc2n[nH]nc12	> 100 µM	> 100 µM	–	> 100 µM	> 100 µM	> 100 µM	> 100 µM	> 100 µM	> 100 µM	> 100 µM	> 100 µM	> 100 µM	–	> 100 µM	–	> 100 µM	–	–	–
CN(/N=C/c1ccc(OCc2cccc(COc3ccc(C=O)cc3)n2)cc1)c1cnn(-c2ccc(Cl)cc2Cl)c(=O)c1Cl	> 100 µM	> 100 µM	> 100 µM	> 100 µM	> 100 µM	> 100 µM	> 100 µM	> 100 µM	> 100 µM	> 100 µM	> 100 µM	> 100 µM	> 100 µM	> 100 µM	–	> 100 µM	–	–	–
O=C1C(Cl)C(c2cccc(Cl)c2)N1c1ccc(-n2c(=S)[nH]c3ccccc3c2=O)cc1 (stereo not drawn)	31.5 µM	77.5 µM	42.5 µM	30 µM	70.8 µM	> 100 µM	23.9 µM	–	54.7 µM	49.7 µM	27.9 µM	62.1 µM	> 100 µM	–	72.5 µM	37.8 µM	–	–	–
CN1C2CCC1CC(CCNC(c1ccccc1)c1ccccc1)C2 (stereo not drawn)	–	> 100 µM	59.8 µM	40.3 µM	> 100 µM	> 100 µM	> 100 µM	31.4 µM	30.6 µM	> 100 µM	> 100 µM	> 100 µM	31.4 µM	34.2 µM	> 100 µM	–	–	–	–

SMILES	TGI [1]	TGI [2]	TGI [3]	TGI [4]	TGI [5]	TGI [6]	TGI [7]	TGI [8]	TGI [9]	TGI [10]	TGI [11]	TGI [12]	TGI [13]	TGI [14]	TGI [15]	TGI [16]	GI50 [1]	GI50 [15]	GI50 [11]
NC(=S)Nc1ccc(S(=O)(=O)Nc2ccc(S(N)(=O)=O)cc2)cc1	> 100 µM	> 100 µM	> 100 µM	–	> 100 µM	> 100 µM	> 100 µM	> 100 µM	> 100 µM	> 100 µM	> 100 µM	–	> 100 µM	> 100 µM	–	> 100 µM	–	–	–
COC(=O)C(NC(=O)c1ccccc1)c1ccco1 (stereo not drawn)	> 100 µM	> 100 µM	–	> 100 µM	> 100 µM	> 100 µM	> 100 µM	–	> 100 µM	> 100 µM	> 100 µM	> 100 µM	> 100 µM	> 100 µM	> 100 µM	> 100 µM	–	–	–
COc1ccc(CCN2CCN(CCc3ccc(OC)cc3)CC2)cc1	> 100 µM	> 100 µM	> 100 µM	–	> 100 µM	> 100 µM	> 100 µM	> 100 µM	> 100 µM	> 100 µM	> 100 µM	> 100 µM	> 100 µM	> 100 µM	> 100 µM	> 100 µM	–	–	–
COc1ccc(N2C(=O)c3cc(C)cnc3S2(=O)=O)cc1	> 100 µM	> 100 µM	> 100 µM	> 100 µM	> 100 µM	> 100 µM	> 100 µM	> 100 µM	> 100 µM	> 100 µM	> 100 µM	> 100 µM	> 100 µM	> 100 µM	> 100 µM	–	–	–	–
CCc1c(C)c(C#N)c(=S)n(C2OC(COC(C)=O)C(OC(C)=O)C(OC(C)=O)C2OC(C)=O)c1C (stereo not drawn)	> 100 µM	> 100 µM	> 100 µM	> 100 µM	> 100 µM	> 100 µM	> 100 µM	32.9 µM	> 100 µM	> 100 µM	> 100 µM	–	> 100 µM	> 100 µM	> 100 µM and 84.6 µM	> 100 µM	> 100 µM and 47.6 µM	63.4 µM and 20.8 µM	> 100 µM and 26.9 µM
CC(C)=CC(=O)C[C@H]1C(=O)O[C@@H]2C[C@H]3C(C)=CC(=O)[C@@H](O)[C@]3(C)[C@H]3[C@@]4(O)OC[C@]32[C@@H]1[C@@H](C)[C@H]4O	0.443 µM	0.0918 µM	–	> 100 µM	11 µM	4.25 µM	0.941 µM	0.274 µM	0.329 µM	0.042 µM	0.137 µM	0.258 µM	0.0619 µM	0.172 µM	4.98 µM	–	–	–	–
O=C(O)Cc1cccc2c1OC(c1ccccc1)C(Cl)(C(=O)c1ccccc1)C2=O (stereo not drawn)	–	18.2 µM	29.2 µM	60.6 µM	> 100 µM	50 µM	28.9 µM	–	29 µM	33.1 µM	30.9 µM	99.6 µM	34.9 µM	29.1 µM	> 100 µM	24.5 µM	–	–	–
O=C1NCCCNCCCNCCCNC(=O)c2cccc1n2	> 100 µM	> 100 µM	> 100 µM	> 100 µM	> 100 µM	> 100 µM	> 100 µM	> 100 µM	> 100 µM	> 100 µM	> 100 µM	> 100 µM	> 100 µM	> 100 µM	> 100 µM	–	–	–	–
c1ccc(CSP234N5CCN2CCN3CCN4CC5)c(CSP234N5CCN2CCN3CCN4CC5)c1	> 100 µM	> 100 µM	> 100 µM	> 100 µM	> 100 µM	> 100 µM	> 100 µM	> 100 µM	82.8 µM	> 100 µM	> 100 µM	> 100 µM	–	> 100 µM	–	> 100 µM	–	–	–
Cc1ccc2c(c1)C1(C)OC(C=CC1=O)O2 (stereo not drawn)	3.6 µM	0.569 µM	1.31 µM	1.09 µM	0.0653 µM	7.69 µM	8.88 µM	5.85 µM	–	2.38 µM	0.549 µM	> 26.6 µM	1.32 µM	2.03 µM	12 µM	6.09 µM	–	–	–
N#Cc1c(-c2ccccc2)cc(Nc2cccc(C(F)(F)F)c2)n2c1nc1ccccc12	–	–	3.95 µM	–	7.15 µM	10 µM	–	–	10.3 µM	3.63 µM	10.3 µM	–	8.32 µM	21.8 µM	8.73 µM	–	–	–	–
CCn1c2ccccc2n2c(=O)c3c(c(C#N)c12)CCCC3	> 100 µM	> 100 µM	> 100 µM	–	> 100 µM	> 100 µM	> 100 µM	> 100 µM	> 100 µM	> 100 µM	> 100 µM	> 100 µM	> 100 µM	> 100 µM	> 100 µM	> 100 µM	–	–	–
COc1ccc(O)c(/C(C)=N/NC(=S)N(C)C)c1	> 71.6 µM	> 100 µM	22.9 µM	> 100 µM	> 100 µM	> 100 µM	> 100 µM	> 100 µM	> 100 µM	> 88.5 µM	> 100 µM	> 100 µM	> 100 µM	> 100 µM	> 100 µM	–	–	–	–
COc1ccc(C2C3=C(Nc4ncnn42)c2ccccc2OC3c2ccccc2)cc1 (stereo not drawn)	> 100 µM	–	> 100 µM	> 100 µM	> 100 µM	–	> 100 µM	53.9 µM	44.1 µM	> 100 µM	> 100 µM	> 100 µM	–	–	> 100 µM	> 100 µM	–	–	–
Cc1ccc(-c2c3nc(c(-c4ccc(C)cc4)c4ccc([nH]4)c(-c4ccc(OCC5COC(C)(C)O5)cc4)c4nc(c(-c5ccc(C)cc5)c5ccc2[nH]5)C=C4)C=C3)cc1 (stereo not drawn)	–	–	> 31.6 µM	> 31.6 µM	> 31.6 µM	> 31.6 µM	> 31.6 µM	> 31.6 µM	> 31.6 µM	> 31.6 µM	> 31.6 µM	> 100 µM	> 31.6 µM	> 31.6 µM	–	> 31.6 µM	–	–	–
